Measurements taken from ChEMBL document CHEMBL4834420, “Projected Dose Optimization of Amino- and Hydroxypyrrolidine Purine PI3Kδ Immunomodulators” (J Med Chem, 2021).
pIC50: −log10 of the molar value.

Legend:
[1] = Plasma clearance in Beagle dog at 0.05 mg/kg; type: ADME, organism-based, Canis lupus familiaris
[2] = Half-life in Beagle dog; type: ADME, Canis lupus familiaris; settings: in vivo
[3] = Oral bioavailability in Wistar Han rat; type: ADME, organism-based; settings: in vivo
[4] = Intrinsic clearance in Beagle dog at 0.05 mg/kg; type: ADME, organism-based, Canis lupus familiaris; settings: in vivo
[5] = Unbound volume of distribution in Beagle dog; type: ADME, Canis lupus familiaris; settings: in vivo
[6] = Lipophilicity, log D of the compound by HPLC analysis; type: physicochemical
[7] = Intrinsic clearance in Wistar Han rat at 0.5 mg/kg, iv or 1 mg/kg, po; type: ADME, organism-based; settings: in vivo
[8] = target: T1, Phosphatidylinositol 4,5-bisphosphate 3-kinase catalytic subunit delta isoform (Homo sapiens, UniProt O00329); assay: Inhibition of PI3Kdelta in human Ramos cells assessed as reduction in anti-IgM-antibody-induced phosphorylation of AKT at Ser473 residue preincubated for 20 mins followed by anti-IgM antibody stimulation and measured after 30 mins by alphascreen assay; type: cell-based
T1 sequence (O00329 whole entry): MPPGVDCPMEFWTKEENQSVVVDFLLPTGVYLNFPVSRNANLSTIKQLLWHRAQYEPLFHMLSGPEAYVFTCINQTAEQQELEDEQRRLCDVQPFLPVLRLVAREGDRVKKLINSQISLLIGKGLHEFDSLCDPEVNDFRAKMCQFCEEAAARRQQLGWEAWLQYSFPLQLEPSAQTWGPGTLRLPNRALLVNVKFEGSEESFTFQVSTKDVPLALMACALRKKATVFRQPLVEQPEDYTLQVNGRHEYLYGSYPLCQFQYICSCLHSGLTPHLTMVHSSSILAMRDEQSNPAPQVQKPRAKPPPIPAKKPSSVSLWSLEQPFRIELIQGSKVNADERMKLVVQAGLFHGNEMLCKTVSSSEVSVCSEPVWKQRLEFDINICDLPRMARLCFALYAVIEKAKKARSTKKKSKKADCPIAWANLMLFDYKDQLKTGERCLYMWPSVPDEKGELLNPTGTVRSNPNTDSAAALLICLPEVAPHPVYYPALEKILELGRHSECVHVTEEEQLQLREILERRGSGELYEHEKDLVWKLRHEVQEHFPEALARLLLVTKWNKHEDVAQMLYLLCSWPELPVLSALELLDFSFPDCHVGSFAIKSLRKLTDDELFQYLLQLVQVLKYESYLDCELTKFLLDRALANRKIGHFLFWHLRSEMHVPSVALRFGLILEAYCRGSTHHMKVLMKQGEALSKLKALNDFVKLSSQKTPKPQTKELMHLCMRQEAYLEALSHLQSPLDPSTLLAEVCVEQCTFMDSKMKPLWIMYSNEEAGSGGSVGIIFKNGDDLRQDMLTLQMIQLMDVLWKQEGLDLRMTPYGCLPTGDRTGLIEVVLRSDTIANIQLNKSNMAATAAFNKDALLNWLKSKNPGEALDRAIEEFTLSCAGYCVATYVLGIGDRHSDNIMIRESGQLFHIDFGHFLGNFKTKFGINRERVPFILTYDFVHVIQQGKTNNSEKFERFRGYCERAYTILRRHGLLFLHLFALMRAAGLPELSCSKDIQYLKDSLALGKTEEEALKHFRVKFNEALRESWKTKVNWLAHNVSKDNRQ

[9] = Volume of distribution in Wistar Han rat; type: ADME; settings: in vivo
[10] = Half-life in Wistar Han rat; type: ADME; settings: in vivo
[11] = Inhibition of adenosine transporter in human HeLa cells assessed as reduction in [3H]adenosine uptake preincubated for 30 mins followed by [3H]adenosine addition and measured after 60 mins; type: cell-based
[12] = Plasma clearance in Wistar Han rat at 0.5 mg/kg, iv or 1 mg/kg, po; type: ADME, organism-based
[13] = Volume of distribution in Beagle dog; type: ADME, Canis lupus familiaris; settings: in vivo
[14] = target: PI3-kinase p110-delta/p85-alpha (Homo sapiens, UniProt O00329); assay: Inhibition of N-terminal His6-tagged recombinant full length human p110delta/untagged recombinant full length human p85alpha expressed in baculovirus infected Sf21 insect cells using PIP2 as substrate preincubated for 15 mins followed by substrate addition and measured after 1 hr by HTRF assay
[15] = Unbound volume of distribution in Wistar Han rat; type: ADME; settings: in vivo
[16] = Plasma clearance in Wistar Han rat at 0.05 mg/kg, iv or 1 mg/kg, po; type: ADME, organism-based
[17] = Intrinsic clearance in Wistar Han rat at 0.05 mg/kg, iv or 1 mg/kg, po; type: ADME, organism-based; settings: in vivo
[18] = Apparent permeability in pig LLC-PK1 cells; type: ADME, cell-based, Sus scrofa
[19] = target: T1, Phosphatidylinositol 4,5-bisphosphate 3-kinase catalytic subunit delta isoform; assay: Inhibition of PI3Kdelta in human whole blood assessed as reduction in anti-CD79b antibody-induced CD69 expression preincubated for 60 mins followed by anti-CD79b antibody stimulation and measured after 3 hrs by FACS analysis; type: tissue-based
[20] = Intrinsic clearance in Beagle dog at 0.25 mg/kg, iv or 0.5 mg/kg, po; type: ADME, organism-based, Canis lupus familiaris; settings: in vivo
[21] = Plasma clearance in Beagle dog at 0.25 mg/kg, iv or 0.5 mg/kg, po; type: ADME, organism-based, Canis lupus familiaris
[22] = Oral bioavailability in Beagle dog; type: ADME, organism-based, Canis lupus familiaris; settings: in vivo

PI3-kinase p110-delta/p85-alpha, sequence (P27986 whole entry, one chain of several): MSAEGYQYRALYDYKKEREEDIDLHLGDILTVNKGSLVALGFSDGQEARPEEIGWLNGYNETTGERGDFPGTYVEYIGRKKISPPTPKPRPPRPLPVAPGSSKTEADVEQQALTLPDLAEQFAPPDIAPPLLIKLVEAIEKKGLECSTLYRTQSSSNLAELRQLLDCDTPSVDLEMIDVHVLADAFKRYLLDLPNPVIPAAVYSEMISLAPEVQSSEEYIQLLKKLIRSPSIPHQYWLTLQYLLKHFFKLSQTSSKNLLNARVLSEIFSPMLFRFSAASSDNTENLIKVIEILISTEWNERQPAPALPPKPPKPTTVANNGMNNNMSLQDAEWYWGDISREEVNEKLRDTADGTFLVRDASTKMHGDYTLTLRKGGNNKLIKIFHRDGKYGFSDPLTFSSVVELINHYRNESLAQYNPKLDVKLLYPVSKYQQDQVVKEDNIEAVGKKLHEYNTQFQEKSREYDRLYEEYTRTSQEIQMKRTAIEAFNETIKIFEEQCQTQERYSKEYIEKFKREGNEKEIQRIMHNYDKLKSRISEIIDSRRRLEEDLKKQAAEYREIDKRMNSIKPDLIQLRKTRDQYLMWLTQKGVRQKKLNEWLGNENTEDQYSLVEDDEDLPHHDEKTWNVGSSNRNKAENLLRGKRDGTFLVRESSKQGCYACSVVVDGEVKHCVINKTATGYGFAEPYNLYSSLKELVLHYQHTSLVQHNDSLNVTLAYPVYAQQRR

| clearance [1] | half-life [2] | bioavailability [3] | CL [4] | Vdu [5] | logD [6] | CL [7] | pIC50 [8] | Vd [9] | half-life [10] | pIC50 [11] | clearance [12] | Vd [13] | pIC50 [14] | Vdu [15] | clearance [16] | CL [17] | Papp [18] | SMILES | also measured |
| --- | --- | --- | --- | --- | --- | --- | --- | --- | --- | --- | --- | --- | --- | --- | --- | --- | --- | --- | --- |
| 5.6 mL/min/kg | 186 min | 36% | 22 mL/min/kg | 3.9 L/kg | 2 | 104 mL/min/kg | 7.92 | 0.4 L/kg | 72 min | 5.92 | 4.7 mL/min/kg | 1.2 L/kg | 8.77 | 8.8 L/kg |  |  |  | CCn1c(-c2ccc(C(F)(F)F)nc2)nc2c(N[C@H]3CCN(C(=O)C4CC4)C3)ncnc21 |  |
|  |  |  |  |  | 0.6 |  |  | 0.7 L/kg | 36 min | < 5.00 |  |  | 8.80 | 2.3 L/kg | 18 mL/min/kg | 74 mL/min/kg |  | CCn1c(-c2cnc(C)nc2)nc2c(N[C@H]3CCN(C(=O)C4CCOC4)C3)ncnc21 (stereo partly specified) |  |
| 12 mL/min/kg | 72 min | 75% | 32 mL/min/kg | 2.3 L/kg | 0.9 | 25 mL/min/kg | 7.20 | 0.4 L/kg | 102 min | 5.06 | 4 mL/min/kg | 1.4 L/kg | 8.48 | 2.1 L/kg |  |  |  | CCn1c(-c2cnc(C)nc2)nc2c(O[C@H]3CCN(C(=O)N4CC(OC)C4)C3)ncnc21 |  |
|  |  |  |  |  | 1.5 |  | 7.89 | 0.9 L/kg | 24 min | 5.42 |  |  | 8.66 | 18 L/kg | 26 mL/min/kg | 760 mL/min/kg |  | CCn1c(-c2cnc(C)nc2)nc2c(N[C@H]3CCN(C(=O)C4CC(F)(F)C4)C3)ncnc21 |  |
| 4.3 mL/min/kg | 114 min | 31% | 7 mL/min/kg | 1.1 L/kg | 0.8 | 37 mL/min/kg | 6.41 | 0.8 L/kg | 84 min | < 5.00 | 14 mL/min/kg | 0.8 L/kg | 7.89 | 1.5 L/kg |  |  |  | CCn1c(-c2cnc(C)nc2)nc2c(O[C@H]3CCN(C(=O)C4CCOCC4)C3)ncnc21 |  |
|  |  |  |  |  | 0.6 |  | 7.09 | 0.6 L/kg | 42 min |  |  |  |  | 6.1 L/kg | 13 mL/min/kg | 150 mL/min/kg |  | CCn1c(-c2cnc(C)nc2)nc2c(N[C@H]3CCN(C(=O)c4cocn4)C3)ncnc21 |  |
| 5.5 mL/min/kg | 162 min | 61% | 9 mL/min/kg | 1.9 L/kg | 0.7 | 100 mL/min/kg | 7.38 | 1 L/kg | 90 min | < 5.00 | 21 mL/min/kg | 1.5 L/kg | 8.72 | 3.6 L/kg |  |  | 21 ×10⁻⁶ cm/s | CCC(=O)N1CC[C@H](Nc2ncnc3c2nc(-c2cnc(C)nc2)n3CC)C1 |  |
|  | 78 min | 74% |  | 2.3 L/kg | 1.2 | 320 mL/min/kg | 8.40 | 0.5 L/kg | 36 min | 5.92 | 13 mL/min/kg | 1.3 L/kg | 9.40 | 9.2 L/kg |  |  | 32 ×10⁻⁶ cm/s | CCn1c(-c2cnc(C)nc2)nc2c(N[C@H]3CCN(C(=O)C4CCC4)C3)ncnc21 | pIC50 [19]: 7.85; CL [20]: 30 mL/min/kg; clearance [21]: 11 mL/min/kg; bioavailability [22]: 84% |
|  | 216 min | 58% |  | 1.6 L/kg | 1.9 | 19 mL/min/kg | 6.96 | 0.2 L/kg | 138 min | 5.49 | 1.2 mL/min/kg | 0.9 L/kg | 8.39 | 3.6 L/kg |  |  | 27 ×10⁻⁶ cm/s | CCn1c(-c2ccc(C(F)(F)F)nc2)nc2c(O[C@H]3CCN(C(=O)C4CCOC4)C3)ncnc21 (stereo partly specified) | pIC50 [19]: 7.00; CL [20]: 6 mL/min/kg; clearance [21]: 3.4 mL/min/kg; bioavailability [22]: 100% |
